Laboratory results taken from patent US11325889B2, “Substituted 3-((3-aminophenyl)amino)piperidine-2,6-dione compounds, compositions thereof, and methods of treatment therewith” (Celgene Corporation, priority 2018, dated 2022).
Like-named read-outs stand apart in the source and are kept apart here.

Biological target: T1, AR protein in VCaP cells (Homo sapiens, UniProt P10275)
T1 construct: endogenous in cells; host or cells: VCaP cells
T1 sequence (P10275 1-920): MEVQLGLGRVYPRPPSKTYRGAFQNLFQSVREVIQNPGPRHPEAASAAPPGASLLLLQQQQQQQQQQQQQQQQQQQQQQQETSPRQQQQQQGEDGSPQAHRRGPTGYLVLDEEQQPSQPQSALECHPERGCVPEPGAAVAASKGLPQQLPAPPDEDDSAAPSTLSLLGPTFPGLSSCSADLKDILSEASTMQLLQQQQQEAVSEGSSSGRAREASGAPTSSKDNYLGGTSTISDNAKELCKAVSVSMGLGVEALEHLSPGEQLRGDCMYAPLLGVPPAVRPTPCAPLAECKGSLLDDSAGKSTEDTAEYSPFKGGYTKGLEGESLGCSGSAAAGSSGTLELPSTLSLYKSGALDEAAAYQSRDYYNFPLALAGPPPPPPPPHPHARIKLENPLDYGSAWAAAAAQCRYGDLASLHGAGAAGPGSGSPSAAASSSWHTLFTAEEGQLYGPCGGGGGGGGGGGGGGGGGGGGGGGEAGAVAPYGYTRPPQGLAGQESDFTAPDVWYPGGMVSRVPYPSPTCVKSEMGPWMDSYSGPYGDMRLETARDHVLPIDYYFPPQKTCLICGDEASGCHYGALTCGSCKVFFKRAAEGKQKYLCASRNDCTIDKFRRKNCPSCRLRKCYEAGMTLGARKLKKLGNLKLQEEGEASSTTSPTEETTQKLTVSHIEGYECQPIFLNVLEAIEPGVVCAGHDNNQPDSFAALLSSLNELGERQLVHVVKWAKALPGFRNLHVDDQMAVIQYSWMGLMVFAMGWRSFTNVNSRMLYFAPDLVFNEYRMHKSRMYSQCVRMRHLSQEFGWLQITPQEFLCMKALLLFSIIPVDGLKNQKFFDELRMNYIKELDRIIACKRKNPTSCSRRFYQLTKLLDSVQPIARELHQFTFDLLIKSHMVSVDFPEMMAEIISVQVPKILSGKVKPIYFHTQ
Experiment: VCAP AR Degradation Assay (AR ELISA, 24 h)
Format: cell-based
Details: for Y (lowest measured AR level normalized to DMSO control): AR degradation efficiency; for DC50: concentration of compound when AR level = 50% of DMSO control
Method in brief: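 VCaP cells in DMEM with 8% FBS exposed for 24 h at 37° C to a 10-point, 1:3 series (final top concentration […]; 0.1% DMSO control). Lysate AR measured by sandwich ELISA and normalized to DMSO as percent of control. DC50, EC50 and lowest AR level (Y) from four-parameter logistic fit.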

In the case of CCc1cc(N2C(=S)N(c3ccc(C#N)c(C(F)(F)F)c3)C(=O)C2(C)C)ccc1OCC[C@@H]1CCN(CC(=O)Nc2cccc(NC3CCC(=O)NC3=O)c2)[C@H](C)C1 (stereo partly drawn) [Cmpd 71, 2-((2R,4R)-4-(2-(4-(3-(4-cyano-3-(trifluoromethyl)phenyl)-5,5-dimethyl-4-oxo-2-thioxoimidazolidin-1-yl)-2-ethylphenoxy)ethyl)-2-methylpiperidin-1-yl)-N-(3-(2,6-dioxopiperidin-3-ylamino)phenyl)acetamide], the “Y (lowest measured AR level normalized to DMSO control)” value is reported as “* (0<Y<=25%)” and the DC50 (read-out: DC50) is reported as under 100 nM.

In the case of CCc1cc(N2C(=S)N(c3ccc(C#N)c(C(F)(F)F)c3)C(=O)C2(C)C)ccc1OCCC1CCN([C@@H](C)C(=O)Nc2cc(Cl)cc(NC3CCC(=O)NC3=O)c2)CC1 (stereo partly drawn) [Cmpd 26, (2S)-N-(3-chloro-5-(2,6-dioxopiperidin-3-ylamino)phenyl)-2-(4-(2-(4-(3-(4-cyano-3-(trifluoromethyl)phenyl)-5,5-dimethyl-4-oxo-2-thioxoimidazolidin-1-yl)-2-ethylphenoxy)ethyl)piperidin-1-yl)propanamide], the “Y (lowest measured AR level normalized to DMSO control)” value is reported as “* (0<Y<=25%)” and the DC50 (read-out: DC50) is reported as 100 to 500 nM.

CCc1cc(N2C(=S)N(c3ccc(C#N)c(C(F)(F)F)c3)C(=O)C2(C)C)ccc1OCCC1(F)CCN(CC(=O)Nc2cccc(NC3CCC(=O)NC3=O)c2)CC1 (stereo not shown) [Cmpd 88, 2-(4-(2-(4-(3-(4-cyano-3-(trifluoromethyl)phenyl)-5,5-dimethyl-4-oxo-2-thioxoimidazolidin-1-yl)-2-ethylphenoxy)ethyl)-4-fluoropiperidin-1-yl)-N-(3-(2,6-dioxopiperidin-3-ylamino)phenyl)acetamide] was tested, and the “Y (lowest measured AR level normalized to DMSO control)” value was “* (0<Y<=25%)” and the DC50 (read-out: DC50) was under 100 nM.

CCc1cc(N2C(=S)N(c3cnc(C#N)c(C(F)(F)F)c3)C(=O)C2(C)C)ccc1OCC[C@H]1C[C@H]2CC[C@@H](C1)N2CC(=O)Nc1cc(Cl)cc(NC2CCC(=O)NC2=O)c1 (stereo partly drawn) [Cmpd 63, N-(3-chloro-5-(2,6-dioxopiperidin-3-ylamino)phenyl)-2-((1R,3r,5S)-3-(2-(4-(3-(6-cyano-5-(trifluoromethyl)pyridin-3-yl)-5,5-dimethyl-4-oxo-2-thioxoimidazolidin-1-yl)-2-ethylphenoxy)ethyl)-8-azabicyclo[3.2.1]octan-8-yl)acetamide] was tested, and the “Y (lowest measured AR level normalized to DMSO control)” value was “** (25%<Y<=35%)” and the DC50 was under 100 nM.

CCc1cc(N2C(=S)N(c3cnc(C#N)c(C(F)(F)F)c3)C(=O)C2(C)C)ccc1OCC[C@@H]1C[C@H]2CC[C@@H](C1)N2CC(=O)Nc1cccc(NC2CCC(=O)NC2=O)c1 (stereo partly drawn) [Cmpd 66, 2-((1R,3s,5S)-3-(2-(4-(3-(6-cyano-5-(trifluoromethyl)pyridin-3-yl)-5,5-dimethyl-4-oxo-2-thioxoimidazolidin-1-yl)-2-ethylphenoxy)ethyl)-8-azabicyclo[3.2.1]octan-8-yl)-N-(3-(2,6-dioxopiperidin-3-ylamino)phenyl)acetamide] was tested, and the “Y (lowest measured AR level normalized to DMSO control)” value was “* (0<Y<=25%)” and the DC50 was under 100 nM.

In the case of CCc1cc(N2C(=S)N(c3ccc(C#N)c(C(F)(F)F)c3)C(=O)C23CCC3)ccc1OCCC1CCN([C@H](C)C(=O)Nc2cc(NC3CCC(=O)NC3=O)ccc2F)CC1 (stereo partly drawn) [Cmpd 75, (2R)-2-(4-(2-(4-(7-(4-cyano-3-(trifluoromethyl)phenyl)-8-oxo-6-thioxo-5,7-diazaspiro[3.4]octan-5-yl)-2-ethylphenoxy)ethyl)piperidin-1-yl)-N-(5-(2,6-dioxopiperidin-3-ylamino)-2-fluorophenyl)propanamide], the “Y (lowest measured AR level normalized to DMSO control)” value is reported as “** (25%<Y<=35%)” and the DC50 (read-out: DC50) is reported as 100 to 500 nM.

With CCc1cc(N2C(=S)N(c3cnc(C#N)c(C(F)(F)F)c3)C(=O)C2(C)C)ccc1OCCC1(C)CCN(CC(=O)Nc2cccc(NC3CCC(=O)NC3=O)c2)CC1 (stereo not shown) [Cmpd 61, 2-(4-(2-(4-(3-(6-cyano-5-(trifluoromethyl)pyridin-3-yl)-5,5-dimethyl-4-oxo-2-thioxoimidazolidin-1-yl)-2-ethylphenoxy)ethyl)-4-methylpiperidin-1-yl)-N-(3-(2,6-dioxopiperidin-3-ylamino)phenyl)acetamide] the “Y (lowest measured AR level normalized to DMSO control)” value was “* (0<Y<=25%)” and the DC50 (read-out: DC50) was under 100 nM.

For CCc1cc(N2C(=S)N(c3cnc(C#N)c(C(F)(F)F)c3)C(=O)C2(C)C)ccc1OCCC1CCN([C@@H](C)C(=O)Nc2cccc(N[C@@H]3CCC(=O)NC3=O)c2)CC1 [Cmpd 44, (S)-2-(4-(2-(4-(3-(6-cyano-5-(trifluoromethyl)pyridin-3-yl)-5,5-dimethyl-4-oxo-2-thioxoimidazolidin-1-yl)-2-ethylphenoxy)ethyl)piperidin-1-yl)-N-(3-((R)-2,6-dioxopiperidin-3-ylamino)phenyl)propanamide], the “Y (lowest measured AR level normalized to DMSO control)” value was “* (0<Y<=25%)” and the DC50 (read-out: DC50) was under 100 nM.

CCc1cc(N2C(=S)N(c3ccc(C#N)c(C(F)(F)F)c3)C(=O)C2(C)C)ccc1OCCC1CCN([C@@H](C)C(=O)Nc2cccc(NC3CCC(=O)NC3=O)c2)CC1 (stereo partly drawn) [Cmpd 41, (2S)-2-(4-(2-(4-(3-(4-cyano-3-(trifluoromethyl)phenyl)-5,5-dimethyl-4-oxo-2-thioxoimidazolidin-1-yl)-2-ethylphenoxy)ethyl)piperidin-1-yl)-N-(3-(2,6-dioxopiperidin-3-ylamino)phenyl)propanamide] was tested, and the “Y (lowest measured AR level normalized to DMSO control)” value was “* (0<Y<=25%)” and the DC50 (read-out: DC50) was under 100 nM.

For CC1(C)C(=O)N(c2ccc(C#N)c(C(F)(F)F)c2)C(=S)N1c1ccc(OCCC2CCN(CC(=O)Nc3cccc(NC4CCC(=O)NC4=O)c3)CC2)c(CCF)c1 (stereo not shown) [Cmpd 48, 2-(4-(2-(4-(3-(4-cyano-3-(trifluoromethyl)phenyl)-5,5-dimethyl-4-oxo-2-thioxoimidazolidin-1-yl)-2-(2-fluoroethyl)phenoxy)ethyl)piperidin-1-yl)-N-(3-(2,6-dioxopiperidin-3-ylamino)phenyl)acetamide], the “Y (lowest measured AR level normalized to DMSO control)” value was “* (0<Y<=25%)” and the DC50 (read-out: DC50) was under 100 nM.

For CCc1cc(N2C(=S)N(c3ccc(C#N)c(C(F)(F)F)c3)C(=O)C23CCC3)ccc1OCCC1CCN([C@@H](C)C(=O)Nc2cc(Cl)cc(NC3CCC(=O)NC3=O)c2)CC1 (stereo partly drawn) [Cmpd 32, (2S)-N-(3-chloro-5-(2,6-dioxopiperidin-3-ylamino)phenyl)-2-(4-(2-(4-(7-(4-cyano-3-(trifluoromethyl)phenyl)-8-oxo-6-thioxo-5,7-diazaspiro[3.4]octan-5-yl)-2-ethylphenoxy)ethyl)piperidin-1-yl)propanamide], the “Y (lowest measured AR level normalized to DMSO control)” value was “** (25%<Y<=35%)” and the DC50 (read-out: DC50) was 100 to 500 nM.

CCc1cc(N2C(=S)N(c3cnc(C#N)c(C(F)(F)F)c3)C(=O)C23CCC3)ccc1OCC[C@@H]1C[C@H]2CC[C@@H](C1)N2CC(=O)Nc1cccc(NC2CCC(=O)NC2=O)c1 (stereo partly drawn) [Cmpd 68, 2-((1R,3s,5S)-3-(2-(4-(7-(6-cyano-5-(trifluoromethyl)pyridin-3-yl)-8-oxo-6-thioxo-5,7-diazaspiro[3.4]octan-5-yl)-2-ethylphenoxy)ethyl)-8-azabicyclo[3.2.1]octan-8-yl)-N-(3-(2,6-dioxopiperidin-3-ylamino)phenyl)acetamide] was tested, and the “Y (lowest measured AR level normalized to DMSO control)” value was “* (0<Y<=25%)” and the DC50 was under 100 nM.

In the case of CC1(C)C(=O)N(c2cnc(C#N)c(C(F)(F)F)c2)C(=S)N1c1ccc(OCCC2CCN(CC(=O)Nc3cccc(NC4CCC(=O)NC4=O)c3)CC2)c(CCF)c1 (stereo not shown) [Cmpd 58, 2-(4-(2-(4-(3-(6-cyano-5-(trifluoromethyl)pyridin-3-yl)-5,5-dimethyl-4-pxo-2-thioxoimidazolidin-1-yl)-2-(2-fluoroethyl)phenoxy)ethyl)piperidin-1-yl)-N-(3-(2,6-dioxopiperidin-3-ylamino)phenyl)acetamide], the “Y (lowest measured AR level normalized to DMSO control)” value is reported as “* (0<Y<=25%)” and the DC50 (read-out: DC50) is reported as under 100 nM.

With CCc1cc(N2C(=S)N(c3cnc(C#N)c(C(F)(F)F)c3)C(=O)C2(C)C)ccc1OC1C[C@H]2CC[C@@H](C1)N2CC(=O)Nc1cccc(NC2CCC(=O)NC2=O)c1 (stereo partly drawn) [Cmpd 87, 2-((1R,3s,5S)-3-(4-(3-(6-cyano-5-(trifluoromethyl)pyridin-3-yl)-5,5-dimethyl-4-oxo-2-thioxoimidazolidin-1-yl)-2-ethylphenoxy)-8-azabicyclo[3.2.1]octan-8-yl)-N-(3-(2,6-dioxopiperidin-3-ylamino)phenyl)acetamide] the “Y (lowest measured AR level normalized to DMSO control)” value was “*** (35%<Y<50%)” and the DC50 (read-out: DC50) was 500 to 1000 nM.
